Test results from ChEMBL document CHEMBL5506050, “Discovery of Oral AMP-Activated Protein Kinase Activators for Treating Hyperlipidemia” (J Med Chem, 2024).
Activity calls are given as the source filed them. The rule behind the calls is not given here.

Tests used:
Mus musculus [1] = experiment: Downregulation of Ctgf mRNA level in liver of high-fat diet-fed C57BL/6 mouse model at 200 mg/kg, po for 4 weeks by GO analysis; format: functional, organism-based
[2] = Apparent permeability across apical to basal side in human Caco-2 cells at 2 uM incubated for 2 hrs by LC-MS/MS analysis; format: ADME, cell-based
Mus musculus [3] = experiment: Effect on Mvd mRNA level in liver of diet-induced obese C57BL/6 mouse model harboring AMPKalpha LS-/- at 200 mg/kg, po for 4 weeks by GO analysis; format: functional, organism-based
[4] = biological target: AMP-activated protein kinase, AMPK (Homo sapiens) (UniProt P54646+O43741+P54619+Q9UGJ0+Q9Y478+Q13131+Q9UGI9); experiment: Activation of AMPK in human HepG2 cells assessed as decrease in intracellular lipid content at 10 uM incubated for 48 hrs by Oil Red O staining based analysis relative to control; format: cell-based; design: scale not given: the % may be the effect or the level left
Mus musculus [5] = experiment: Effect on Gadd45b mRNA level in liver of diet-induced obese C57BL/6 mouse model harboring AMPKalpha LS-/- at 200 mg/kg, po for 4 weeks by GO analysis; format: functional, organism-based
Mus musculus [6] = experiment: Downregulation of Pcsk9 mRNA level in liver of high-fat diet-fed C57BL/6 mouse model at 200 mg/kg, po for 4 weeks by GO analysis; format: functional, organism-based
Syrian golden hamster [7] = experiment: Lipid lowering effect on high-fat diet-fed golden hamster assessed as decrease in serum TG level at 6 mg/kg, po qd administered via gavage measured after 4 weeks relative to control; format: functional, Mesocricetus auratus; design: scale not given: the % may be the effect or the level left
Mus musculus [8] = experiment: Effect on Ptafr mRNA level in liver of diet-induced obese C57BL/6 mouse model harboring AMPKalpha LS-/- at 200 mg/kg, po for 4 weeks by GO analysis; format: functional, organism-based
[9] = biological target: AMP-activated protein kinase, AMPK; experiment: Binding affinity to recombinant AMPK (unknown origin)-immobilized in CM5 sensor chip assessed as dissociation constant by SPR analysis; format: protein-complex assay, Homo sapiens
Rhesus monkey = experiment: Lipid lowering effect in Rhesus monkey assessed as decrease in serum LDL-C level at 35 mg/kg, NG qd measured after 21 days relative to control; format: functional, Macaca mulatta; design: scale not given: the % may be the effect or the level left; details: time 21 day
Mus musculus [10] = experiment: Effect on Pcsk9 mRNA level in liver of diet-induced obese C57BL/6 mouse model harboring AMPKalpha LS-/- at 200 mg/kg, po for 4 weeks by GO analysis; format: functional, organism-based
Syrian golden hamster [11] = experiment: Lipid lowering effect on high-fat diet-fed golden hamster assessed as decrease in AST level in liver at 50 to 200 mg/kg, po qd administered via gavage measured after 4 weeks; format: functional, organism-based; details: Mesocricetus auratus, dose 50-200 mg/kg
Mus musculus [12] = experiment: Effect on Aacas mRNA level in liver of diet-induced obese C57BL/6 mouse model harboring AMPKalpha LS-/- at 200 mg/kg, po for 4 weeks by GO analysis; format: functional, organism-based
[13] = Acute toxicity in golden hamster assessed as animal survival at 20 g/Kg, po measured for 14 days; format: organism-based, Mesocricetus auratus; details: in vivo, 20000 mg/kg, 336 h, time 14 day
[14] = Half life in male Rhesus monkey at 70 mg/kg, po or 7 mg/kg, iv measured for 36 hrs by LC-tandem MS analysis; format: ADME, organism-based, Macaca mulatta; details: in vivo
Syrian golden hamster [15] = experiment: Lipid lowering effect on high-fat diet-fed golden hamster assessed as decrease in serum LDL-C level at 6 mg/kg, po qd administered via gavage measured after 4 weeks relative to control; format: functional, Mesocricetus auratus; design: scale not given: the % may be the effect or the level left
Mus musculus [16] = experiment: Effect on Ccr2 mRNA level in liver of diet-induced obese C57BL/6 mouse model harboring AMPKalpha LS-/- at 200 mg/kg, po for 4 weeks by GO analysis; format: functional, organism-based
[17] = Stability in human Caco-2 cells assessed as compound remaining at 10 ug/ml measured after 1 hr by LC-MS/MS analysis; format: ADME, cell-based; details: at 10 µg/mL, read-out: Stability
Syrian golden hamster [18] = experiment: Effect on serum TG level in high-fat diet-fed golden hamster harboring LDLR-/- at 50 to 200 mg/kg, po qd administered via gavage measured after 8 weeks; format: functional, organism-based; details: Mesocricetus auratus, dose 50-200 mg/kg
[19] = Tmax in female Rhesus monkey at 70 mg/kg, po or 7 mg/kg, iv measured for 36 hrs by LC-tandem MS analysis; format: ADME, organism-based, Macaca mulatta; details: in vivo
[20] = Oral bioavailability in male Rhesus monkey at 70 mg/kg measured for 36 hrs by LC-tandem MS analysis; format: ADME, organism-based, Macaca mulatta; details: in vivo
Syrian golden hamster [21] = experiment: Lipid lowering effect on high-fat diet-fed golden hamster assessed as decrease in serum TC level at 6 mg/kg, po qd administered via gavage measured after 4 weeks relative to control; format: functional, Mesocricetus auratus; design: scale not given: the % may be the effect or the level left
Syrian golden hamster [22] = experiment: Lipid lowering effect on high-fat diet-fed golden hamster assessed as decrease in serum LDL-C level at 50 mg/kg, po qd administered via gavage measured after 4 weeks relative to control; format: functional, Mesocricetus auratus; design: scale not given: the % may be the effect or the level left
[23] = Cmax in male Rhesus monkey at 70 mg/kg, po or 7 mg/kg, iv measured for 36 hrs by LC-tandem MS analysis; format: ADME, organism-based, Macaca mulatta; details: in vivo

SMILES: CC(=O)OC[C@H]1O[C@@H](n2cnc3c(Nc4cccc(O)c4)ncnc32)[C@H](OC(C)=O)[C@@H]1OC(C)=O
- Activity (Mus musculus [1]): Active
- Papp A→B at 2 h, 2 µM [2]: 8.6 ×10⁻⁶ cm/s
- Activity (Mus musculus [3]): inactive
- Activity [4]: 64%
- Activity (Mus musculus [5]): inactive
- Activity (Mus musculus [6]): Active
- Activity (Syrian golden hamster [7]): 52.8%
- Activity (Mus musculus [8]): inactive
- Kd [9]: 17.9 µM
- Activity (Rhesus monkey): 23.69%
- Activity (Mus musculus [10]): inactive
- Activity (Syrian golden hamster [11]): Active
- Activity (Mus musculus [12]): inactive
- Activity [13]: Non-Toxic
- half-life [14]: 5.4 h
- Activity (Syrian golden hamster [15]): 27.5%
- Activity (Mus musculus [16]): inactive
- remaining at 1 h, 10 ug/ml [17]: 77%
- Activity (Syrian golden hamster [18]): inactive
- Tmax [19]: 2.25 h
- bioavailability [20]: 3.04%
- Activity (Syrian golden hamster [21]): 24.8%
- Activity (Syrian golden hamster [22]): 10.5%
- Cmax [23]: 20.4 ng/mL
